This passage reports IC50 results from patent publication US20230416225A1, “DIAMINOPYRIMIDINE CARBOXAMIDE INHIBITORS OF HPK1” (MERCK SHARP & DOHME LLC, priority 2020, published 2023).

This experiment deals with T1, Human HPK1, catalytic domain (Homo sapiens, UniProt Q92918).
T1 construct: purchased Carna
T1 sequence (Q92918 1-346): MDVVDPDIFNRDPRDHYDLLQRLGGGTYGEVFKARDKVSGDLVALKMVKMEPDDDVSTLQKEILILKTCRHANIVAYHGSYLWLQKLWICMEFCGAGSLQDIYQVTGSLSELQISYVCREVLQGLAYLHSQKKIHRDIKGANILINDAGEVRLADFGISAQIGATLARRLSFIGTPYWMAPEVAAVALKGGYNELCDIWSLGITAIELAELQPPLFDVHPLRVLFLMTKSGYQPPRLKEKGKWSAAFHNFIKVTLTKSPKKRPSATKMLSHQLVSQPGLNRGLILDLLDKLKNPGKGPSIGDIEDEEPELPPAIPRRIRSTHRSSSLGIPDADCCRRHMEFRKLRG
As to the kind of experiment: HPK1-SLP76 TR-FRET assay. Format: biochemical. To be noted: 75 pM HPK1, 10 uM ATP, 10 nM SLP76, 30 min compound pre-incubation. Background: In TR-FRET formats the signal depends on donor and acceptor labels being close together.
The IC50 is the concentration needed to halve the response being measured. Higher therefore signals weaker potency. For `COc1cc2c(cc1Nc1ncc(C(N)=O)c(Nc3c(F)cc(I)cc3F)n1)CNCC2` [Example 9-12, 4-(2,6-difluoro-4-iodoanilino)-2-[(6-methoxy-1,2,3,4-tetrahydroisoquinolin-7-yl)amino]pyrimidine-5-carboxamide], inhibition was half-maximal at 1.83 nM (IC50).

As for `COCCN1CCc2cc(OC)c(Nc3ncc(C(N)=O)c(Nc4ccccc4Br)n3)cc2C1` [Example 10-1, 4-[(2-bromophenyl)amino]-2-{[6-methoxy-2-(2-methoxyethyl)-1,2,3,4-tetrahydroisoquinolin-7-yl]amino}pyrimidine-5-carboxamide], 0.44 nM corresponded to half-maximal inhibition (IC50).

As for `COc1cc2c(cc1Nc1ncc(C(N)=O)c(Nc3ccccc3Br)n1)CN(CC(F)(F)F)CC2` [Example 10-2, 4-((2-bromophenyl)amino)-2-((6-methoxy-2-(2,2,2--trifluoroethyl)-1,2,3,4-tetrahydroisoquinolin-7-yl)amino)pyrimidine-5-carboxamide], the IC50 came to 246 nM.

`COc1cc2c(cc1Nc1ncc(C(N)=O)c(Nc3ccccc3Br)n1)CN(CC(F)F)CC2` [Example 10-3, 4-((2-bromophenyl)amino)-2-((2-(2,2-difluoroethyl)-6-methoxy-1,2,3,4-tetrahydroisoquinolin-7-yl)amino)pyrimidine-5-carboxamide] returned an IC50 of 28.9 nM.

Compound `C=CCCCN1CCc2cc(OC)c(Nc3ncc(C(N)=O)c(Nc4c(F)cc(Br)cc4F)n3)cc2C1` [Example 10-4, 4-(4-bromo-2,6-difluoroanilino)-2-{[6-methoxy-2-(pent-4-en-1-yl)-1,2,3,4-tetrahydroisoquinolin-7-yl]amino}pyrimidine-5-carboxamide] gave an IC50 of 67.1 nM.

Regarding `COc1cc2c(cc1Nc1ncc(C(N)=O)c(Nc3ccccc3Br)n1)CN(S(C)(=O)=O)CC2` [Example 10-5, 4-[(2-bromophenyl)amino]-2-{[6-methoxy-2-(methylsulfonyl)-1,2,3,4-tetrahydroisoquinolin-7-yl]amino}pyrimidine-5-carboxamide], half-maximal inhibition (IC50) required 43.2 nM.

In turn, `CCS(=O)(=O)N1CCc2cc(OC)c(Nc3ncc(C(N)=O)c(Nc4ccccc4Br)n3)cc2C1` [Example 10-6, 4-[(2-bromophenyl)amino]-2-{[2-(ethylsulfonyl)-6-methoxy-1,2,3,4-tetrahydroisoquinolin-7-yl]amino}pyrimidine-5-carboxamide] gave an IC50 of 41.6 nM.

On to `COc1cc2c(cc1Nc1ncc(C(N)=O)c(Nc3ccccc3Br)n1)CN(S(=O)(=O)C(C)C)CC2` [Example 10-7, 4-[(2-bromophenyl)amino]-2-({6-methoxy-2-[(propan-2-yl)sulfonyl]-1,2,3,4-tetrahydroisoquinolin-7-yl}amino)pyrimidine-5-carboxamide], for which the IC50 stood at 52.6 nM.

`COc1cc2c(cc1Nc1ncc(C(N)=O)c(Nc3ccccc3Br)n1)CN(S(=O)(=O)C1CC1)CC2` [Example 10-8, 4-[(2-bromophenyl)amino]-2-{[2-(cyclopropylsulfonyl)-6-methoxy-1,2,3,4-tetrahydroisoquinolin-7-yl]amino}pyrimidine-5-carboxamide] displayed an IC50 of 845 nM. This IC50 is about 16-fold higher than that of the compound before.

Consider `COc1cc(C(=O)N2CCN(C)CC2)ccc1Nc1ncc(C(N)=O)c(Nc2ccccc2C(F)(F)F)n1` [Example 11-1, 2-((2-methoxy-4-(4-methylpiperazine-1-carbonyl)phenyl)amino)-4-((2-(trifluoromethyl)phenyl)amino)pyrimidine-5-carboxamide], for which 869 nM corresponded to half-maximal inhibition (IC50).

With `COc1cc(C(=O)N2CCC(N(C)C)C2)ccc1Nc1ncc(C(N)=O)c(Nc2ccccc2C(F)(F)F)n1` (stereo not drawn) [Example 11-2, 2-((4-(3-(dimethylamino)pyrrolidine-1-carbonyl)-2-methoxyphenyl)amino)-4-((2-(trifluoromethyl)phenyl)amino)pyrimidine-5-carboxamide], the midpoint of inhibition, the IC50, lay at 199 nM.

As for `COCCOCCOCC(=O)N1CCc2cc(OC)c(Nc3ncc(C(N)=O)c(Nc4ccccc4Br)n3)cc2C1` [Example 12-1, 4-[(2-bromophenyl)amino]-2-[(6-methoxy-2-{[2-(2-methoxyethoxy)ethoxy)accetyl}-1,2,3,4-tetrahydroisoquinolin-7-yl)amino]pyrimidine-5-carboxamide], the IC50 is 117 nM.

`COc1cc2c(cc1Nc1ncc(C(N)=O)c(Nc3ccccc3Br)n1)CN(C(C)=O)CC2` [Example 12-2, 2-[(2-acetyl-6-methoxy-1,2,3,4-tetrahydroisoquinolin-7-yl)amino]-4-[(2-bromophenyl)amino]pyrimidine-5-carboxamide] returned an IC50 of 244 nM.

The compound `COc1cc2c(cc1Nc1ncc(C(N)=O)c(Nc3ccccc3Br)n1)CN(C(=O)C(C)C)CC2` [Example 12-3, 4-[(2-bromophenyl)amino]-2-{[6-methoxy-2-(2-methylpropanoyl)-1,2,3,4-tetrahydroisoquinolin-7-yl]amino}pyrimidine-5-carboxamide] had an IC50 of 598 nM.

For the compound `COCCC(=O)N1CCc2cc(OC)c(Nc3ncc(C(N)=O)c(Nc4ccccc4Br)n3)cc2C1` [Example 12-4, 4-[(2-bromophenyl)amino]-2-{[6-methoxy-2-(3-methoxypropanoyl)-1,2,3,4-tetrahydroisoquinolin-7-yl]amino}pyrimidine-5-carboxamide], it took 380 nM to reach half-maximal inhibition (IC50).

As for `COCC(=O)N1CCc2cc(OC)c(Nc3ncc(C(N)=O)c(Nc4ccccc4Br)n3)cc2C1` [Example 12-5, 4-[(2-bromophenyl)amino]-2-{[6-methoxy-2-(methoxyacetyl)-1,2,3,4-tetrahydroisoquinolin-7-yl]amino}pyrimidine-5-carboxamide], inhibition was half-maximal at 112 nM (IC50).

`COc1cc2c(cc1Nc1ncc(C(N)=O)c(Nc3ccccc3Br)n1)CN(C(=O)C1(C(F)(F)F)CCC1)CC2` [Example 12-6, 4-[(2-bromophenyl)amino]-2-({6-methoxy-2-[1-(trifluoromethyl)cyclobutane-1-carbonyl]-1,2,3,4-tetrahydroisoquinolin-7-yl}amino)pyrimidine-5-carboxamide] gave a 50% inhibitory concentration (IC50) of 27.7 nM.

`COc1cc2c(cc1Nc1ncc(C(N)=O)c(Nc3ccccc3Br)n1)CN(C(=O)C1(N(C)C)CCC1)CC2` [Example 12-7, 4-[(2-bromophenyl)amino]-2-({2-[1-(dimethylamino)cyclobutane-1-carbonyl]-6-methoxy-1,2,3,4-tetrahydroisoquinolin-7-yl}amino)pyrimidine-5-carboxamide] returned an IC50 of 1.96 nM.

Compound `COc1cc2c(cc1Nc1ncc(C(N)=O)c(Nc3ccccc3Br)n1)CN(C(=O)C1(C)CCC1)CC2` [Example 12-8, 4-[(2-bromophenyl)amino]-2-{[6-methoxy-2-(1-methylcyclobutane-1-carbonyl)-1,2,3,4-tetrahydroisoquinolin-7-yl]amino}pyrimidine-5-carboxamide] came in with an IC50 of 344 nM.

Turning to `COc1cc2c(cc1Nc1ncc(C(N)=O)c(Nc3ccccc3Br)n1)CN(C(=O)C1CCC1)CC2` [Example 12-9, 4-[(2-bromophenyl)amino]-2-{[2-(cyclobutanecarbonyl)-6-methoxy-1,2,3,4-tetrahydroisoquinolin-7-yl]amino}pyrimidine-5-carboxamide], the IC50 came out at 172 nM.

Consider `COc1cc2c(cc1Nc1ncc(C(N)=O)c(Nc3ccccc3Br)n1)CN(C(=O)C1CCC1(F)F)CC2` (stereo not drawn) [Example 12-10, 4-[(2-bromophenyl)amino]-2-{[2-(2,2-difluorocyclobutane-1-carbonyl)-6-methoxy-1,2,3,4-tetrahydroisoquinolin-7-yl]amino}pyrimidine-5-carboxamide], for which the IC50 came out at 186 nM.

In turn, `COc1cc2c(cc1Nc1ncc(C(N)=O)c(Nc3ccccc3Br)n1)CN(C(=O)CC(F)(F)F)CC2` [Example 12-11, 4-[(2-bromophenyl)amino]-2-{[6-methoxy-2-(3,3,3-trifluoropropanoyl)-1,2,3,4-tetrahydroisoquinolin-7-yl]amino}pyrimidine-5-carboxamide] came in with an IC50 of 11.1 nM.

For `COC(=O)N1CCc2cc(OC)c(Nc3ncc(C(N)=O)c(Nc4ccccc4Br)n3)cc2C1` [Example 12-12, methyl 7-({4-[(2-bromophenyl)amino]-5-carbamoylpyrimidin-2-yl}amino)-6-methoxy-3,4-dihydroisoquinoline-2(1H)-carboxylate], the IC50 turned out to be 284 nM. This IC50 lies about 26-fold higher than the previous one.

In turn, `COc1cc2c(cc1Nc1ncc(C(N)=O)c(Nc3ccccc3C3CCCCC3)n1)CN(C)CC2` [Example 13-1, 4-[(2-cyclohexylphenyl)amino]-2-[(6-methoxy-2-methyl-1,2,3,4-tetrahydroisoquinolin-7-yl)amino]pyrimidine-5-carboxamide] displayed an IC50 of 5.83 nM.

As to `COc1cc2c(cc1Nc1ncc(C(N)=O)c(Nc3ccccc3CC3CCOCC3)n1)CN(C)CC2` [Example 13-2, 2-[(6-methoxy-2-methyl-1,2,3,4-tetrahydroisoquinolin-7-yl)amino]-4-({2-[(oxan-4-yl)methyl]phenyl}amino)pyrimidine-5-carboxamide], half-maximal inhibition (IC50) required 0.92 nM.

`COc1cc2c(cc1Nc1ncc(C(N)=O)c(Nc3ccccc3Cc3ccccc3)n1)CN(C)CC2` [Example 13-3, 4-[(2-benzylphenyl)amino]-2-[(6-methoxy-2-methyl-1,2,3,4-tetrahydroisoquinolin-7-yl)amino]pyrimidine-5-carboxamide]: the IC50 came to 30.6 nM.

Compound `COc1cc2c(cc1Nc1ncc(C(N)=O)c(Nc3ccccc3CC3(F)COC3)n1)CN(C)CC2` [Example 13-4, 4-({2-[(3-fluorooxetan-3-yl)methyl]phenyl}amino)-2-[(6-methoxy-2-methyl-1,2,3,4-tetrahydroisoquinolin-7-yl)amino]pyrimidine-5-carboxamide] displayed an IC50 of 0.66 nM.
